Source: patent publication US9814758B2, “Inhibitors of apoptosis and uses thereof” (CENTRE NATIONAL DE LA RECHERCHE SCIENTIFIQUE-CNRS, priority 2010, dated 2017)
Non-standard residues stand in square brackets, D forms with d. Residues, ends and D or L forms follow the SMILES beside them. No end group written: not given here. Ahx = NCCCCCC(=O)O

Columns and labels:
[1] = test system: H9c2 cells; assay: STS-induced DNA fragmentation (Cell Death detection ELISA PLUS) in H9c2 cells; assay type: cell-based, rat; conditions: rat H9c2 (model for cardiac cells); FIG. 5C
Description: FIG. 5: In vitro evaluation of the anti-apoptotic activity of CPPs and CPP-conjugates. Workflow and quantitation of DNA fragmentation in (A) C2C12 cells, (B) primary cardiomyocytes, (C) H9c2 cells and (D) NG108-15 cells. Data were normalized to 100% STS. Data shown are the means±SEM, with n≧5. Cells were seeded in 24-well plates and grown overnight. The next day, the cells were incubated with STS alone or with STS+1 μM peptide (in OPTI-MEM) (OPTI-MEM® is a modification of Eagle's Minimum Essential Media, buffered with HEPES and sodium bicarbonate, and supplemented with hypoxanthine, thymidine, sodium pyruvate, L-glutamine, trace elements, and growth factors) (STS concentration and incubation time for each cells are given in the figure). Thereafter, solutions were removed, replaced by complete medium and further incubated for 40 h. Following the regeneration phase, the cells were lyzed and DNA fragmentation was detected according to manufacturer's instructions (Cell Death detection ELISA^PLUS kit—Roche Diagnostics). […]
Thereafter, the capacity of these peptides to inhibit apoptosis induced by staurosporine was evaluated. Apoptosis was determined using the Cell Death detection ELISA^PLUS kit (Roche) measuring the DNA fragmentation.
The anti-apoptotic effects of the peptides were also analyzed in murine NG118-15 (model for neuronal cells) (FIG. 5D), in murine C2C12 (model for muscle cells) (FIG. 5A) and in rat H9c2 (model for cardiac cells) (FIG. 5C). The highest reduction in DNA fragmentation were observed using Bpep-DAXXp in NG118-15 (66% reduction) using Tat-DAXXp in C2C12 (24% reduction) and Pip2b-DAXXp in H9c2 (31% reduction).

[2] = test system: C57Bl6 mice, myocardial ischemia-reperfusion; assay: Myocardial ischemia-reperfusion IR24h (40 min ischemia, 24 h reperfusion); assay type: in vivo, mouse; conditions: reperfusion prolonged from 1 hour to 24 hours
Description: FIG. 11: In vivo experimental protocol. C57Bl6 mice underwent a surgical protocol of myocardial ischemia-reperfusion (IR). The black box represents the period of ischemia to which the mice were submitted. Infarct size or cell death measurements were performed at the end of surgery for each protocol (indicated by ↑). IR60′: 40 minutes of Ischemia, 60 minutes of Reperfusion. IR24h: 40 minutes Ischemia and 24 hours Reperfusion.
FIG. 14: Cardioprotective effects of Tat-DAXXp (1 mg/kg-IV) in mice subjected to IR24h. Infarct size (in % of area at risk) and internucleosomal DNA fragmentation determined by ELISA were quantified in mice subjected to IR24H and treated with Tat, Tat-DAXXp or Tat-scrDAXXp (1 mg/kg) as well as with DAXXp (10 mg/kg) (IV injection 5 minutes before reperfusion). […]
FIG. 15: Dose response for Tat-DAXXp and DAXXp in mice subjected to IR24h. Area at risk and infarct size (in % of area at risk) were measured in mice subjected to IR24h and treated by Tat (1 mg/kg), Tat-DAXXp (0.1, 1 and 10 mg/kg) or DAXXp (0.1, 1 and 10 mg/kg) injected intravenously 5 minutes before reperfusion. […]
In a second step, the cardioprotective effects of DAXXp were evaluated in an in vivo model of myocardial ischemia-reperfusion. […]

[3] = test system: kidney graft; assay: Cold ischemia/reperfusion injury during kidney transplantation; assay type: in vivo, rat; conditions: preliminary
Excerpt: FIG. 17: Preliminary data on cold ischemia/reperfusion injury during kidney transplantation. Brain death and prolonged cold ischemia are major contributors to the poorer long-term outcome of transplants from deceased donor kidney transplants, with an even higher impact if expanded criteria donors (‘marginal organs’) are used. Targeting ischemia-reperfusion (IR) injury-related intragraft inflammation is an attractive concept to improve the outcome of those grafts. (A) Workflow of cold ischemia/reperfusion during kidney transplantation in rat. After a 24 h cold ischemia, the kidney graft was transplanted orthotopically into male LEW recipients using standard microsurgical techniques. Peptides were injected immediately after reperfusion in a single i.v injection at 1 mg/kg. Three days after transplantation, grafts were harvested for RT-PCR analysis (n=3). (B) Total RNA was reverse transcribed into cDNA and subjected to quantitative real-time RT-PCR utilizing the GENEAMP® 5700 Sequence Detection System (Applied Biosystems, Weiterstadt, Germany). The TAQMAN®-PCR reactions for ICAM-1, IFN-γ, TNF-α, interleukin (IL)-6 and bcl-2 (synthesized by Metabion, Martinsried, Germany) were performed in a final volume of 25 μl.

[4] = 1 mg/kg single i.v. after reperfusion, kidney graft 3 days after transplantation, RT-PCR

Compound | reduction in DNA fragmentation [1] [%] | cardioprotective effects at prolonged reperfusion [2] | mRNA expression of ICAM-1 [3, 4] | mRNA expression of IFN-γ [3, 4] | protection from ischemia-reperfusion injuries ([3]; 1 mg/kg, renal transplantation model (Rat))
CC[C@H](C)[C@H](NC(=O)[C@H](Cc1c[nH]cn1)NC(=O)[C@@H](NC(=O)[C@H](CCCNC(=N)N)NC(=O)CCCCCNC(=O)[C@H](CCCNC(=N)N)NC(=O)[C@H](CCCNC(=N)N)NC(=O)CCCCCNC(=O)[C@H](CCCNC(=N)N)NC(=O)[C@H](CCCNC(=N)N)NC(=O)CCCCCNC(=O)[C@@H](N)CCCNC(=N)N)[C@@H](C)CC)C(=O)N[C@@H](CC(C)C)C(=O)N[C@@H](Cc1ccccc1)C(=O)N[C@@H](CCC(N)=O)C(=O)N[C@@H](CC(N)=O)C(=O)N[C@H](CCCNC(=N)N)C(=O)N[C@@H](CCCNC(=N)N)C(=O)N[C@@H](CCSC)C(=O)N[C@@H](CCCCN)C(=O)N[C@@H](Cc1c[nH]c2ccccc12)C(=O)N[C@@H](Cc1c[nH]cn1)C(=O)N[C@@H](CCCCN)C(=O)N[C@@H](CCCCN)C(=O)N[C@@H](CCCCN)C(=O)N[C@@H](CO)C(=O)N[C@@H](CCCNC(=N)N)C(=O)N[C@@H](CCCCN)C(=O)N[C@@H](CCC(=O)O)C(=O)N[C@@H](CCCCN)C(=O)N[C@@H](CCCCN)C(=O)N[C@@H](CCC(N)=O)C(=O)N[C@H](C(=O)NCC(=O)N[C@@H](CO)C(=O)NCC(=O)N1CCC[C@H]1C(=O)N[C@@H](CC(C)C)C(=O)NCC(N)=O)[C@@H](C)O [Pip2b-DAXXp, (RXR)3-IHILFQNrRMKWHK-KKSRKEKKQTGSGPLG-NH2] (H-R[Ahx]RR[Ahx]RR[Ahx]RIHILFQN[dR]RMKWHKKKSRKEKKQTGSGPLG-NH2; N-terminus assumed) | 31 |  |  |  | 
GRKKRRQRRRPPQKKSRKEKKQTGSGPLG-NH2 [Tat-DAXXp, GRKKRRQRRRPPQ-KKSRKEKKQTGSGPLG-NH2] |  | maintained | reduction in mRNA expression | reduction in mRNA expression | able to protect from ischemia-reperfusion injuries
